Assays:
[1] = system: CHO cells stably transfected with human APP695; test: Aβ production in CHO cells stably transfected with human APP695, cell variant not given; assay type: cell-based
Experimental: The employed Zn^2+ concentrations were 10 μM, 50 μM, 100 μM and 200 μM. Thereafter, it was studied from which concentration of Zn(II) the release of the Aβ peptide can be inhibited. The following experiments were carried out for this purpose:
(1) CHO cells which were stably transfected with human APP695 were incubated in MEM medium with the above-mentioned concentrations of Zn(II) (10 to 200 μM in PBS). CHO cells with copper ions (10 to 50 μM in PBS) or without any addition were incubated as controls. The production of Aβ (total), Aβ40 and Aβ42 was determined qualitatively and quantitatively with polyclonal and monoclonal antibodies. APP, Aβ and p3 were detected according to biosynthetic labeling with ^35S methionine as followed. The stably transfected CHO cells, which were incubated as mentioned above with the respective substances, were incubated for four hours with 220 μCi ^35S methionine as follows. […] The protein concentrations were determined beforehand using the protein detection kit from BioRad company and the amount of incorporated radioactivity was determined via scintillation counting. […] The supernatants were incubated with the above mentioned polyclonal APP and Aβ antibodies overnight at 4° C., the immunocomplexes formed were isolated with protein A sepharose and analyzed according to the method described in Ida et al., J. Biol. Chem. 271, pp. 22908-22914.

[2] = system: Aβ peptide with the human sequence; test: Aβ production in CNS and blood of transgenic mice given Zn(II); assay type: in vivo; conditions: orally, i.v., i.p., s.c. and i.c.
Experimental: (2) Primary neurons were isolated from transgenic mice which expressed the Aβ peptide with the human sequence, and their Aβ production was determined as described in (1).
(3) The above mentioned Zn(II) concentrations in PBS were applied to transgenic mice orally, i.v., i.p., s.c. and i.c. (see (2)) and the Aβ production was determined in the CNS and in the blood (which was withdrawn from the caudal vein) as outlined above in (1). The serum obtained from the caudal vein of the mice (150-200 μl) is filled using PBS buffer up to a volume of 500 μl and incubated with 5 μg monoclonal antibody WO-2 (Ida et al., supra) and 20 μl of a 1:1 suspension of protein G sepharose overnight at 4° C. on an overhead shaker. The resulting supernatant is then incubated with polyclonal antibodies (22734/6) against APP and the immunocomplexes are analyzed as described above in (1). The Aβ immunocomplexes are separated by means of 12% bis-tricin Novex gels in accordance with the instructions of the manufacturer and the relevant molecular weight range is analyzed after the transfer of the proteins to a nitrocellulose filter (380 mA at 4° C. for 40 minutes) with the monoclonal antibody WO-2 using the ECL technique according to Ida et al. The result here was also that a decrease of the Aβ production could be obtained from a concentration of 50 μM Zn(II).

[3] = system: APP processing in CHO cells (K1, APP695); test: APP processing in parental CHO-K1 cells transfected with APP695 (35S-methionine labeling, immunoprecipitation); assay type: cell-based, human
Text: (§1) CHO cells were transfected with a c-myc-tagged APP695 vector (Peraus et al., J. Neurosci 17, page 7714-7724 (1997)) or with the expression vector (pcDNA3) by means of a highly efficient calcium phosphate transfection (Chen et al., Biotechniques 6, pages 632-638 (1988). The pSP65 (Invitrogen company) N-tag-APP 695 DNA was cloned into the vector pcDNA3 (Invitrogen/ITC Biotechnology, Heidelberg) using the SmaI or EcoRV cloning sites. The transfection efficiency was checked by means of immunoprecipitation of APP with polyclonal rabbit-anti-c-myc antibody (18/47; produced against the amino acid sequence EQKLISEEDL of the c-myc sequence; from Eurogentec, Seraing, Belgium) and immunoblots using the monoclonal mouse antibody 22C11 (Boehringer Mannheim) in the “ECL” detection system (Amersham, Braunschweig). The parental CHO-K1 cells and the copper-resistant cell variant CUR3 were cultured at 37° C. in “Eagles” medium (BME), to which 2 mM L-glutamine, 0.1 mM proline, 20 mM HEPES and 10% fetal calf serum (Boehringer Ingelheim) were added. The basic copper concentration was 0.8 μM. CUR3 cells were cultured in a medium with 200 μM of copper added.
(§2) Stably transfected CHO cells of a culture dish (60 mm) were treated for 4 hours with 2 ml essential minimum medium (MEM) which contained no methionine (Sigma company, Munich) and was supplemented with 220 μCi [^35S]methionine (Amersham company, Braunschweig) and 5% N2. The conditioned medium (CM) and the cells were collected and immunorepcipitated. The protein concentrations were determined beforehand by means of a “BioRad” protein assay (Bradford et al., Anal. Biochem. 72, pages 248-254 (1976)) or the radioactively labeled proteins were precipitated with 10% trichloroacetic acid (TCA) and the incorporated [^35S]methionine was measured (Beckman LS 6000IC). The cells were lyzed in extraction buffer which contained 50 mM Tris-CHl (pH value 7.5), 150 mM NaCl, 2 mM EDTA, 2% triton X-100, 2% NP40, 10 μg/ml aprotinin and 10 μg/ml leupeptin. For removing cell debris, the lysate and the medium were centrifuged for 10 minutes at 13,000×g and the medium was adjusted to 25 mM Tris-CHl (pH value 8.5), 1 mM PMSF, 10 μg/ml aprotinin, 10 μg/ml leupeptin, 0.5% triton X-100 and 0.5% NP40. The solubilized proteins were diluted in 100 mM Tris-HCl (pH value 7.5), 300 mM NaCl and 4 mM EDTA at a concentration of 1:2. The supernatants were incubated overnight at 4° C. with APP antibodies with end-over-end rotation in an overhead shaker. In some experiments, the resulting supernatants were then analyzed using Aβ antiserum. Immunocomplexes were obtained with protein A sepharose and analzyed as described in (Weidemann et al., Cell 57, pages 115-126 (1989)).
(§3) For detecting APP, polyclonal rabbit antibodies directed against recombinant Fd-APP770 (antiserum 22734/6 against the amino acid residues 18-687 of APP770 or antiserum 23850/6 against the APP amino acid residues 18-491 (FIG. 1) were diluted at a concentration of 1:500 for precipitation. The antisera were produced in a laboratory according to standard methods known to the person skilled in the art. Aβ, p3.5 and […] were recognized by the polyclonal antibodies 830 (diluation 1:50; Aβ, p3.5 and p3 were likewise precipitated) which had been produced against a synthetic peptide corresponding to the Aβ amino acid residues 1-40 (FIG. 1). Aβ and its derivatives were separated by 10-20% Tris-tricin-polyacrylamide gels and APP using 7% Tris-glycin-polyacrylamide gels or 7% Tris-tricin-polyacrylamide gels. For immunoblots cell extracts and extracellular medium were precipitated with 10% TCA, washed with acetone and dissolved in sample buffer. After the electrophoresis, the gels were further processed as described in (Simons et al., J. Neurosci 16, pages 899-908 (1996)) and quantified with the “Fuji-Bas-PhosphorImager” system. The data were expressed as average values +/− standard deviation and, unless indicated otherwise, they represent the result of at least two separate experiments. […]

[4] = system: APP processing in CHO cells (CUR3, APP695); test: APP processing in copper-resistant CHO-CUR3 cells transfected with APP695 (35S-methionine labeling, immunoprecipitation); assay type: cell-based, human
Text: as §1, §2, §3

[5] = system: CHO cells; test: Viability of CHO cells (LDH outflow); assay type: cell-based; conditions: different copper concentrations, 4 h labeling, entire experiment
Experimental: During the labeling period copper chloride or zinc chloride (concentrations: 5 μM to 200 μM) were added to the culturing medium. D(−)-penicillamine (PEN; Sigma), bathocuproin-disulfonate (BC; Aldrich) and 1,10-phenanthroline ([…]; Sigma) were added to the medium up to a final concentration of 100 μM (PEN and BC) or 200 μM (PEN). The viability of the cells was measured by means of the lactate dehydrogenase (LDH) outflow into the culture (41). The LDH outflow was measured as enzyme activity (units/liter) after 2 and 4 hours in the medium of 70% confluent monolayers of CHO cells in “Eagle” medium modified according to Dulbecco (DMEM)
For investigating the regulation of the APP metabolism by copper ions, CHO cells stably transfected with APP695 were labeled for 4 hours with ^35S-labeled methionine in the presence of different copper concentrations and following immunoprecipitation with polyclonal antibodies which detect APP (22734/6) or detect Aβ and p3 ([…]), the secretions of the APP ectodomain, of Aβ and p3 were measured. […] APP695 derivatives released in conditioned medium were detected as bands of 105 and 97.5 kDa (FIG. 3b), they probably differing in that the upper band has a higher content of sialic acids.

Compound: [Ca+2] [Ca(II)]
- Aβ production ([1]; above 200 μM, detection limit reached): no further decrease

Compound: [Cl-].[Cl-].[Zn+2] [Zn(II), zinc chloride]
- Zn(II) concentration from which a decrease of the Aβ production could be obtained [2]: ≥ 50 µM
- Zn(II) concentration from which Aβ production could be reduced drastically ([1]; CHO cells, MEM medium, 10 to 200 μM Zn(II) tested): ≥ 50 µM
- secretion of APP ([3]; CHO-K1 cells, Zn(II) concentrations above 50 μM): lowered secretion
- Aβ production reduced by ([3]; K1 cells, 50 μM Zn(II)): 20%
- Aβ production reduced by ([3]; K1 cells, 200 μM Zn(II)): 60%
- Aβ production reduced by ([4]; 50 μM Zn(II)): 60%
- Aβ production reduced by ([4]; 100 μM Zn(II)): 90%
- Aβ production reduced by ([4]; 200 μM Zn(II)): 99%
- secretion of APP ([4]; Zn(II) concentrations above 50 μM): lowered secretion

Compound: [Cl][Cu][Cl] [Cu(II), copper chloride]
- viability of the cell lines [5]: no reduced viability
- Aβ, [%] increase/decrease as compared to standard conditions ([3]; K1 cells, 10 μM Cu(II), 4 h): 20%
- p3, [%] increase/decrease as compared to standard conditions ([3]; K1 cells, 10 μM Cu(II), 4 h): 154%
- APP695, [%] increase/decrease as compared to standard conditions ([3]; K1 cells, 10 μM Cu(II), 4 h, cell lysate (cAPP)): 295%
- SAPP695c, [%] increase/decrease as compared to standard conditions ([3]; K1 cells, 10 μM Cu(II), 4 h, soluble APP695 in medium): 475%
- sAPP751/770 level ([3]; K1 cells, 10 μM copper, endogenous KPI-containing isoforms): 275%
- Aβ levels ([3]; K1 cells, Cu(II) concentrations below the basal level (0.8 μM)): increased drastically
- Cu(II) concentration at which the increase in sAPP695 reached a maximum ([3]; K1 cells, conditioned medium): 10 µM
- Aβ production ([3]; K1 cells, increasing copper concentrations): below the detection limit
- APP695, [%] increase/decrease as compared to standard conditions ([4]; 50 μM Cu(II), 4 h, cell lysate (cAPP)): 550%
- p3, [%] increase/decrease as compared to standard conditions ([4]; 50 μM Cu(II), 4 h, medium): 270%
- Aβ, [%] increase/decrease as compared to standard conditions ([4]; 50 μM Cu(II), 4 h, medium, % of basal concentration): 20%
- SAPP695c, [%] increase/decrease as compared to standard conditions ([4]; 50 μM Cu(II), 4 h, soluble APP695 in conditioned medium, relative to basal medium (0.8 μM Cu)): 265%
- Aβ levels ([4]; Cu(II) concentrations below the basal level (0.8 μM)): increased drastically
- Aβ concentration ([4]; above 100 μM copper): hardly detectable
- secretion of p3 ([4]; between 20 μM and 50 μM copper in the medium): 270%
- Cu(II) concentration at which the increase in sAPP695 reached a maximum ([4]; conditioned medium): 50 µM
- percentage of cAPP ([4]; copper concentration of 50 μM exceeded in the medium): 550%
- p3.5 concentration ([4]; increasing copper (50 μM and above)): strongly lowered

From patent US20050186287A1, “Copper agonist that binds on the copper binding site of APP and/or exerts an inhibiting effect on the release of amyloid Abeta peptide” (priority 1999, published 2005)
